Test in all cases: DTP human tumour cell line panel, 48 h
Assay [1] relates to CAKI-1 renal.
Assay [2] deals with HCT-116 colon.
For assay [3], the system named is HOP-62 NSCLC.
Assay [4] deals with IGROV1 ovarian.
Assay [5] deals with KM12 colon.
For assay [6], the system named is MALME-3M melanoma.
Assay [7] has as its system MOLT-4 leukemia.
Assay [8] has as its system OVCAR-8 ovarian.
The subject of assay [9] is RXF 393 renal.
Assay [10] relates to UACC-257 melanoma.

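Values below derive from 48-hour exposures of cells grown in 96-well plates, with endpoints linearly interpolated between the two concentrations bracketing the appropriate inhibition level. The concentration for 50% growth inhibition is given as GI50. TGI denotes the concentration required for complete inhibition of growth.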

In general, GI50 refers to the concentration that inhibits growth by half. As usually defined, the TGI is the concentration at which net growth stops. Low readings indicate greater sensitivity of the cells, high ones lower sensitivity of the cells. Turning to `C=C1C(=O)O[C@H]2[C@H]1CC/C(CNC(=O)/C=C/c1ccc(Cl)cc1Cl)=C\CC[C@@]1(C)O[C@@H]21`, the GI50 in assay [1] was 0.759 µM; in [2] it was 0.647 µM; in assay [3], 1.74 µM; in [4], 1.63 µM; in [5] it was 1.62 µM; in assay [6], 1.29 µM. For the same molecule, the GI50 in assay [7] is 0.275 µM; in [8], 1.37 µM; in assay [9], 0.403 µM; in assay [10] it was 1.21 µM. Moreover, the concentration for total growth inhibition (TGI) in assay [1] was 2.16 µM; in [2], 2 µM; in assay [3], 4.06 µM; in [4], 3.41 µM; in assay [5], 3.03 µM; in assay [6], 2.7 µM. In addition, the TGI in assay [7] was 1.58 µM; in assay [8] it was 3.44 µM; in assay [9] it was 1.63 µM; in [10] it was 2.58 µM.
On to `COc1ccc2c(c1)C=C1CSCC3=Cc4cc(OC)ccc4OC13O2`, for which the 50% growth inhibitory concentration (GI50) in [1] is 0.41 µM; in assay [2], 0.471 µM; in [3], 0.407 µM; in assay [4], 0.608 µM; in assay [5], 0.513 µM; in assay [6], 0.473 µM. For the same molecule, the GI50 in assay [7] is 0.486 µM; in assay [8], 0.522 µM; in assay [9] it was 0.216 µM; in assay [10], more than 100 µM. The TGI in assay [1], in assay [2], in assay [3], in assay [4], in assay [5] and in assay [6] was more than 100 µM each time. Moreover, the TGI in assay [7] is more than 100 µM; in assay [8], more than 100 µM; in assay [9], 0.645 µM; in assay [10], more than 100 µM.
`O=C1COCCN1c1ccc(NCc2cn(C(=O)c3ccc(Cl)cc3)c3ccccc23)cc1`: the GI50 in assay [1] was 0.0531 µM; in [2], 0.247 µM; in [3], 1.06 µM; in assay [4], 0.252 µM; in [5], 13.7 µM; in assay [6], 7.96 µM. For the same molecule, the GI50 is 5.66 µM in assay [7], 5.04 µM in assay [8], 3.09 µM in assay [9] and 0.276 µM in assay [10]. For the same molecule, the TGI is 1.8 µM in [1]; 19.8 µM in [2]; more than 100 µM in [3]; 8.51 µM in [4]; more than 100 µM in [5]; 24.9 µM in assay [6]. Also, the total growth inhibition concentration (TGI) was 47.8 µM in assay [7], more than 100 µM in [8], 18.3 µM in [9] and 1.7 µM in [10].
As for `NS(=O)(=O)c1ccc(NC(=O)c2cccc3c(Nc4ccc(S(N)(=O)=O)cc4)c4ccccc4nc23)cc1`, the TGI in assay [1] was more than 100 µM; in assay [2] it was more than 100 µM; in [3], more than 100 µM; in [4], more than 100 µM; in assay [5] it was 25.6 µM; in assay [6], more than 100 µM. Also, the total growth inhibition concentration (TGI) in assay [7] is 39.8 µM; in assay [8], more than 100 µM; in assay [9] it was more than 100 µM; in [10], more than 100 µM.
For the molecule `[O-][n+]1c2cc(CN3CCOCC3)c(CN3CCOCC3)cc2[n+]([O-])c2c(O)cccc21`, the TGI is more than 23.9 µM in [1]; 6.05 µM in assay [2]; 15.8 µM in assay [3]; 13 µM in assay [4]; 8.55 µM in [5]; 25.3 µM in [6]. The TGI in assay [7] was determined as 3.05 µM; in assay [8], 7.12 µM; in assay [9] it was 5.11 µM; in assay [10] it was 16.3 µM.
As to `O=C1c2ccn(CCCCN(CCO)CCO)c2C(=O)c2c1c(O)c1ccccc1c2O`, the GI50 in [1] is 8.24 µM; in [2], 2.04 µM; in assay [3], 16.3 µM; in assay [4] it was 4.97 µM; in assay [5] it was 1.75 µM; in [6] it was 10 µM. Moreover, the GI50 in assay [7] was 2.55 µM; in assay [8], 3.61 µM; in [9], 5.19 µM; in assay [10], 4.83 µM. For the same molecule, the total growth inhibition concentration (TGI) in [1] is 21.7 µM; in assay [3], more than 50.5 µM; in assay [4] it was more than 100 µM; in assay [5], 3.59 µM; in assay [6] it was 35.2 µM; in assay [8], more than 100 µM. Further, the TGI is more than 58.6 µM in assay [9] and 24.4 µM in assay [10].
Consider `CN(CCCN(C)CCC1CCCCC1)CCC1CCCCC1`, for which the GI50 in assay [1] is 1.52 µM; in [2] it was 2.52 µM; in assay [3], 5.3 µM; in assay [4], 1.09 µM; in assay [5], 2.04 µM; in [6] it was 1.39 µM. Further, the GI50 in assay [7] was 2.4 µM; in [8], 4.85 µM; in assay [9], 0.946 µM; in assay [10] it was 0.291 µM. Besides, the concentration for total growth inhibition (TGI) in assay [1] came out at 3.82 µM; in [2] it was 7.45 µM; in assay [3] it was 17.7 µM; in assay [4], 5.54 µM; in assay [5], 4.12 µM; in [6], 3.03 µM. Besides, the concentration for total growth inhibition (TGI) in assay [7] was determined as 7.3 µM; in assay [8] it was 18.4 µM; in assay [9] it was 3.54 µM; in assay [10], 0.876 µM.
Turning to `Clc1ccc(/C=C/c2nc(Cl)c(-c3ccc(Cl)cc3)c(Cl)n2)cc1`, the TGI in [1], in assay [2], in assay [3], in [4], in [5] and in assay [6] was more than 100 µM in each case. Also, the TGI in [7], in assay [8], in assay [9] and in [10] was more than 100 µM throughout.
Regarding `Cc1cc(C)nc(NS(=O)(=O)c2ccc(NC(=O)c3cccc4c(N)c5ccccc5nc34)cc2)n1`, the TGI in assay [1], in [2], in assay [3], in assay [4], in assay [5] and in assay [6] was more than 100 µM in each case. Further, the TGI in assay [7], in [8], in [9] and in [10] was more than 100 µM throughout.
With `O=C(NC1C=Nc2ccccc2NC1=O)c1ccccc1Cl` (stereo not drawn), the TGI in assay [1], in [2], in assay [3], in assay [4], in assay [5] and in assay [6] was more than 100 µM throughout. Besides, the total growth inhibition concentration (TGI) in [7] was 54.4 µM; in assay [8] it was more than 100 µM; in assay [9], 62.9 µM; in assay [10], more than 100 µM.
